This note sets out measurements from ChEMBL document CHEMBL1158130, “Cembrane diterpenes from the gorgonian Lophogorgia peruana” (2006).

The source made the active and inactive calls. No cut-off for these calls is given here.

Experiment [1] concerns HT-29. Briefly: Growth inhibition of human HT-29 cells by sulforhodamine B assay. Type of experiment: functional. The note with it: for CC50: read-out: LC50 (the source's name). In general terms: The SRB assay estimates cell density from bound dye.
The test system of experiment [2] is MDA-MB-231. Briefly: Growth inhibition of human MDA-MB-231 cells by sulforhodamine B assay. It is filed as functional.
The subject of experiment [3] is A549. In words: Growth inhibition of human A549 cells by sulforhodamine B assay. It is filed as functional.
The test system of experiment [4] is A549. Briefly: Growth inhibition of human A549 cells up to 25 uM by sulforhodamine B assay. Type of experiment: functional, cell-based.
Experiment [5] has as its system MDA-MB-231. In words: Growth inhibition of human MDA-MB-231 cells up to 25 uM by sulforhodamine B assay. Type of experiment: functional, cell-based.
The test system of experiment [6] is HT-29. Briefly: Growth inhibition of human HT-29 cells up to 25 uM by sulforhodamine B assay. Type of experiment: functional, cell-based.

As usually defined, the GI50 is the concentration giving 50% growth inhibition. Low readings indicate greater sensitivity of the cells, high ones lower sensitivity of the cells. As a reminder, the TGI is the concentration giving total growth inhibition. Low values mean more potent growth arrest, high ones less potent growth arrest. Turning to `C=C(C)[C@H]1CC2=C(C=O)C=C(O2)[C@H](O)[C@@](C)(O)C[C@@H]2OC(=O)[C@]3(O[C@@H]23)[C@H](OC(C)=O)C1` [7-EPI-LOPHODIOL A], in the experiment on HT-29 [1], growth was halved (GI50) at 2.8 µM and the TGI worked out at 4.8 µM. In the experiment with MDA-MB-231 [2], this compound registered a 50% growth inhibitory concentration (GI50) of 3.2 µM, an LC50 (50% lethal concentration) of 8.5 µM and a TGI of 4.6 µM. Moreover, in the experiment with A549 [3], growth was halved (GI50) at 3.9 µM.

For the compound `C=C(C)[C@H]1CC2=C(C=O)C=C(O2)[C@H](OC(C)=O)[C@@](C)(OC(C)=O)C[C@@H]2OC(=O)[C@]3(O[C@@H]23)[C@H](OC(C)=O)C1` [7-EPI-7,8-DI-O-ACETYLLOPHODIOL A], the values for the GI50 in the experiment on HT-29 [1], with MDA-MB-231 [2] and with A549 [3] were 6.2 µM, 3.7 µM and 3.3 µM, respectively. The TGI is 6.6 µM in the experiment on HT-29 [1] and 3.5 µM with A549 [3]. Besides, the CC50 in the experiment with HT-29 [1] came out at 6.9 µM; with A549 [3] (read-out: LC50 (the source's name)), 3.9 µM.

Turning to `C=C(C)[C@H]1CC2=C(C=O)C=C(O2)[C@@H](O)[C@@](C)(O)C[C@@H]2OC(=O)[C@]3(O[C@@H]23)[C@H](OC(C)=O)C1`, the outcome in the experiment on A549 [4], with MDA-MB-231 [5] and in the experiment on HT-29 [6] was inactive.

Turning to `CC(=O)O[C@@H]1C[C@@H](C2(C)CO2)CC2=C(C=O)C=C(O2)[C@H]2O[C@]2(C)C[C@@H]2OC(=O)[C@]13O[C@@H]23` (stereo not given in full), the GI50 in the experiment with HT-29 [1] is 4.6 µM; in the experiment with MDA-MB-231 [2], 5.8 µM; in the experiment on A549 [3], 6 µM. Also, the total growth inhibition concentration (TGI) in the experiment with HT-29 [1] amounted to 6.2 µM; with A549 [3] it was 9.7 µM. For the same compound, the CC50 in the experiment with HT-29 [1] is 9.2 µM.

As to `C=C(C)[C@H]1CC2=C(C=O)C=C(O2)[C@H](O)[C@](C)(O)C[C@@H]2OC(=O)[C@]3(O[C@@H]23)[C@H](OC(C)=O)C1` [LOPHODIOL B], the 50% growth inhibitory concentration (GI50) in the experiment on HT-29 [1] came out at 14.7 µM.

Turning to `C=C(C)[C@@H]1CC[C@]2(C)O[C@H]2CC[C@H](C)/C=C/C=C(/C)C(=O)C1`, the result in the experiment with A549 [4], with MDA-MB-231 [5] and in the experiment on HT-29 [6] was inactive.

For `CC(=O)OCC1([C@H]2CC3=C(C=O)C=C(O3)[C@H]3O[C@]3(C)C[C@@H]3OC(=O)[C@]4(O[C@@H]34)[C@H](OC(C)=O)C2)CO1` (stereo not given in full), the GI50 in the experiment on HT-29 [1] is 8.2 µM; with MDA-MB-231 [2], 5.1 µM; with A549 [3], 5.1 µM. The compound further displayed a TGI with A549 [3] of 6.9 µM.

Turning to `C=C(C)[C@@H]1CCC2=C[C@H](C[C@@]3(C)O[C@@H]3C(=O)/C=C(\C)C(=O)C1)OC2=O` [ISOEPOXYLOPHODIONE], in the experiment on HT-29 [1], growth was halved (GI50) at 4.1 µM, the total growth inhibition concentration (TGI) was determined as 4.4 µM and the CC50 was 4.9 µM. Also, in the experiment on MDA-MB-231 [2], the GI50 worked out at 2.7 µM, the LC50 (50% lethal concentration) worked out at 4.1 µM and net growth stopped (TGI) at 3.2 µM. Also, in the experiment on A549 [3], the 50% growth inhibitory concentration (GI50) was 2.9 µM and net growth stopped (TGI) at 5.5 µM.

Take `C=C(C)[C@@H]1CC2=C(C=O)C=C(O2)[C@@H]2O[C@@]2(C)C[C@H]2OC(=O)[C@@]3(O[C@H]23)[C@@H](OC(C)=O)C1`: the outcome in the experiment with A549 [4], in the experiment on MDA-MB-231 [5] and in the experiment with HT-29 [6] was inactive.

On to `C=C(COC(C)=O)[C@H]1CC2=C(C=O)C=C(O2)[C@H]2O[C@]2(C)C[C@@H]2OC(=O)[C@]3(O[C@@H]23)[C@H](OC(C)=O)C1`, for which the GI50 with MDA-MB-231 [2] came out at 14.5 µM; with A549 [3], 17.9 µM.

On to `C=C(C)[C@H]1CC2=C(C=O)C=C(O2)[C@H]2O[C@@]2(C)C[C@@H]2OC(=O)[C@]3(O[C@@H]23)[C@H](OC(C)=O)C1`, for which, in the experiment with HT-29 [1], the concentration for 50% growth inhibition (GI50) was 5 µM, total growth inhibition (TGI) required 6 µM and the CC50 came to 8.4 µM. In the experiment on MDA-MB-231 [2], this compound yielded a 50% growth inhibitory concentration (GI50) of 4.8 µM and a TGI of 6.2 µM. In the experiment with A549 [3], the GI50 stood at 5.3 µM and net growth stopped (TGI) at 8.4 µM.
